For data set [1], the target named is T1, catalase (Sus scrofa, UniProt O62839).
T1 construct: from tissue; host or cells: porcine small intestinal epithelium, homogenized in RIPA buffer (tissue lysate)
T1 sequence (O62839 2-527 limits assumed): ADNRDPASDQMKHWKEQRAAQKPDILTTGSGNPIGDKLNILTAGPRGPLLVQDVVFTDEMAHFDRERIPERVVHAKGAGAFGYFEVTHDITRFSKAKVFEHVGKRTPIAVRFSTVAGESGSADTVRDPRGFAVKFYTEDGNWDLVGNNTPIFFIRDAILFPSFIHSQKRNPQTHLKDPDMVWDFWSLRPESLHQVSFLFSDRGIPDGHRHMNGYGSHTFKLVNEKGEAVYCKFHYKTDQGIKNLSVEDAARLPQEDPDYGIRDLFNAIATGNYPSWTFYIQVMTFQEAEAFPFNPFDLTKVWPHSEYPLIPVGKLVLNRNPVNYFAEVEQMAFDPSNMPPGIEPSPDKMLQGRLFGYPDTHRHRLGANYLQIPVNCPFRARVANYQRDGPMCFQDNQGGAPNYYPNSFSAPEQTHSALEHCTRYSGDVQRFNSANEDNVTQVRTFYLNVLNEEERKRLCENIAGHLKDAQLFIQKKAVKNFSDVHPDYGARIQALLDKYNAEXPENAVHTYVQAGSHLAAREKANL
The experiment in a line: In vitro inhibition of catalase activity in tissue lysates. The data set is classed as biochemical, pig. Particulars: small intestinal lysates, inhibitor 20 mM, 6 hours, 4° C. Here is the method:
Tissue lysate preparation. Epithelial tissues of the porcine gastrointestinal tract were dissected on ice. The outer mucus layers were removed by aspiration, and then the rinsed tissues [(with 1× phosphate-buffered saline (PBS)] were frozen by liquid nitrogen. Tissues (10 mg) were incubated in the ice-cold lysis buffer (600 μl, RIPA buffer mixed with protease and phosphatase inhibitor cocktail, Sigma-Aldrich) and homogenized to form tissue lysates. The total protein concentrations of tissue lysates were measured by using the bicinchoninic acid (BCA) assay.
In vitro inhibition of catalase activity. 3-amino-1,2,4-triazole was used as the inhibitor. Tissue lysates (10 mg/ml, 100 μl) were incubated in the inhibitor solution (20 mM) for 6 hours at 4° C.

Data set [2] is described as follows: in vivo. Particulars: pig. Here is the method:
In vivo evolution of pharmacokinetics of the praziquantel-tissue-accelerated polymerization. Pigs were sedated, intubated, and maintained with isoflurane as described above. The gastric fluid was removed from the stomach before administration. […] Praziquantel without the tissue-accelerated polymerization was used as the control. Blood samples were collected from a marginal ear vein at designated time points. Serum samples were separated from blood by centrifugation (1800 G×10 min at 4° C.) and were stored at −80° C. for further analysis. […] Serum praziquantel concentration assessment. Praziquantel concentrations in serum from in vivo experiments were analyzed using Ultra-Performance Liquid Chromatography-Tandem Mass Spectrometry (UPLC-MS/MS). Analysis was performed on a Waters ACQUITY UPLC-I-Class System aligned with a Waters Xevo TQ-S mass spectrometer (Waters Corporation, Milford Mass.). Liquid chromatographic separation was performed on an Acquity UPLC BEH C18 (50 mm×2.1 mm, 1.7-μm particle size) column at 50° C. The mobile phase consisted of aqueous 0.1% formic acid, 10 mM ammonium formate solution (Mobile Phase A) and acetonitrile: 10 mM ammonium formate, 0.1% formic acid solution (95:5 v/v) (Mobile Phase B). […] The composition of 0% Mobile Phase A and 100% Mobile Phase B was held constant until 3.50 minutes. The composition returned to 80% Mobile Phase A at 3.51 minutes and was held at this composition until completion of the run, ending at 5.00 minutes, where it remained for column equilibration. The total run time was 5.00 minutes. […] Sample introduction and ionization was by electrospray ionization (ESI) in the positive ionization mode. Waters MassLynx 4.1 software was used for data acquisition and analysis. Stock solutions of praziquantel were prepared in methanol at a concentration of 500 μg/ml. […] Samples were vortexed, sonicated for 10 minutes, and centrifuged for 10 minutes at 13,000 rpm. 200 μl of supernatant was pipetted into a 96-well plate containing 200 μl of water. Finally, 1.00 μl was injected onto the UPLC-ESI-MS system for analysis.

SMILES strings stand for the structures.

The values below come from US12016901B2, “Tissue catalyzed growth of polymer as epithelial linings for therapy” (priority 2019, dated 2024).

The AUC is concentration integrated over time. For orientation: half-life means the time in which the quantity being followed falls by half.

On to `Nc1nc[nH]n1` [catalase-specific inhibitor, 3-amino-1,2,4-triazole], for which the “decrease of catalytic capacity of lysates” value in data set [1] is “around 80%”.
Consider `O=C(C1CCCCC1)N1CC(=O)N2CCc3ccccc3C2C1` (stereo not drawn) [praziquantel control, Praziquantel], for which, in data set [2] (Yorkshire), the AUC stood at 222 ng·h/mL, the concentration at 6 h amounted to 15.1 ng/mL, the elimination phase was 2 to 6 h and the half-life was 1.3 h. Also, the “serum praziquantel concentration at 24 hours” value in data set [2] is listed as “no drug was detected”.
